From patent EP1005446B1, “N-AROYLPHENYLALANINE DERIVATIVES” (priority 1997, dated 1999)

Molecular target: T1, VLA-4 (α4β1 integrin) (Homo sapiens, UniProt P05556+P13612)
T1 construct: followed by 10 µl of Ramos cell-derived VLA-4; endogenous in cells; host or cells: Ramos cells (VLA-4 preparation derived from the cells)
Assay: VLA-4 / VCAM-1 Screening Assay (solid-phase, dual antibody ELISA)
Conditions: inhibition of binding of Ramos cell-derived VLA-4 to immobilized recombinant human VCAM-1
Protocol: VLA-4 / VCAM-1 Screening Assay
VLA-4 antagonist activity, defined as ability to compete for binding to immobilized VCAM-1, was quantitated using a solid-phase, dual antibody ELISA. VLA-4 (α4β1 integrin) bound to VCAM-1 was detected by a complex of anti-integrin β1 antibody: HRP-conjugated anti-mouse IgG: chromogenic substrate (K-Blue). Initially, this entailed coating 96 well plates (Nunc Maxisorp) with recombinant human VCAM-1 (0.4 µg in 100 µl PBS), sealing each plate and then allowing the plates to stand at 4°C for ^~18 hr.

T1 sequence (P13612 34-1032): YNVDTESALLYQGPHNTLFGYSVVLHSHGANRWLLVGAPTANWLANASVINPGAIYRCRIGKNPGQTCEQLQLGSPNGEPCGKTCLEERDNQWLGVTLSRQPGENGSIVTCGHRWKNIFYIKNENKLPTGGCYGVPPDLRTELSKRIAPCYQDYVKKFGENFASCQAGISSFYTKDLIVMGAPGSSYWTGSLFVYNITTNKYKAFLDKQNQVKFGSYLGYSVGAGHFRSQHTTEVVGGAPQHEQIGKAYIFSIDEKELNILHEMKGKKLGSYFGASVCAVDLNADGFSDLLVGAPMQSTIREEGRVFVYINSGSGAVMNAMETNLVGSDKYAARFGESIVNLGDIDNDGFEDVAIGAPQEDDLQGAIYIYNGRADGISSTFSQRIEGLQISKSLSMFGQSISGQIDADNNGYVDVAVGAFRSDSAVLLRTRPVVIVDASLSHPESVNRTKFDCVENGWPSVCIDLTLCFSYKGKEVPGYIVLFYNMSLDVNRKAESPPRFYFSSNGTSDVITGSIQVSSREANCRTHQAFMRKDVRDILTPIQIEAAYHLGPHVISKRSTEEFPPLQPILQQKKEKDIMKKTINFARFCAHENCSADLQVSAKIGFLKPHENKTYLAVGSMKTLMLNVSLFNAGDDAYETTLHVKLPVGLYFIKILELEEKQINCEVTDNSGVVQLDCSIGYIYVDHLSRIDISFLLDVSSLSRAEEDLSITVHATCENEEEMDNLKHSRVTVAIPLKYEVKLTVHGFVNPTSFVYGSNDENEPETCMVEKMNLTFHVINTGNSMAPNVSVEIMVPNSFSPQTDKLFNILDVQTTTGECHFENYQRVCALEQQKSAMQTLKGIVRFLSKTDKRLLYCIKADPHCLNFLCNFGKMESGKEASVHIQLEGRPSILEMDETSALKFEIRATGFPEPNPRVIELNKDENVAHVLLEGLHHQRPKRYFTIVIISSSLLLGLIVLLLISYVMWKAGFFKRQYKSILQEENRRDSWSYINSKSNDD
T1 sequence (P05556 21-798): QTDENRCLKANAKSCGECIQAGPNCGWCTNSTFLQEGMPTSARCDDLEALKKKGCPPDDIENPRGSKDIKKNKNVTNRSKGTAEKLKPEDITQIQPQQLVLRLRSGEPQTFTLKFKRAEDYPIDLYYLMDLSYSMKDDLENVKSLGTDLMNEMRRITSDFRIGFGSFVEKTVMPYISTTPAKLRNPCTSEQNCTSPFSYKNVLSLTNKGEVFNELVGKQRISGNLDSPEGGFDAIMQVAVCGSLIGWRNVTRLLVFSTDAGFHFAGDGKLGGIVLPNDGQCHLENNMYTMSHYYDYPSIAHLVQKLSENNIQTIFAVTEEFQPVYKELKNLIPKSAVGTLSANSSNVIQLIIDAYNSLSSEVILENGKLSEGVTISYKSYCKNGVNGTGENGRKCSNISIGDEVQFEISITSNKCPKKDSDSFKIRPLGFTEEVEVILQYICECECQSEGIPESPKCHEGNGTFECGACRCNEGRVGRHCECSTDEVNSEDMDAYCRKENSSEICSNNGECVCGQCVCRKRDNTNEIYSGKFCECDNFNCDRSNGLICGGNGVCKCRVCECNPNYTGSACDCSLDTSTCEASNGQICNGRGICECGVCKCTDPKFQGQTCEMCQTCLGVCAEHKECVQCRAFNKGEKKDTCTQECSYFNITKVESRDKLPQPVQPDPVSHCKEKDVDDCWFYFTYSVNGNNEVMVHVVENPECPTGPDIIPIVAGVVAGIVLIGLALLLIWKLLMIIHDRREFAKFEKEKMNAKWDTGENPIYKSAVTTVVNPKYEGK

IC50: 0.26 nM
Structure (SMILES): COCCC1(C(=O)N[C@@H](Cc2ccc(NC(=O)c3c(Cl)cccc3Cl)cc2)C(=O)O)CCCC1 [Example 59, 4-[[(2,6-dichlorophenyl)carbonyl]amino]-N-[[1-(2-methoxyethyl)cyclopentyl]carbonyl]-L-phenylalanine]
